Measured values from patent US7521439B2, “Glucocorticoid receptor ligands for the treatment of metabolic disorders” (Karo Bio AB, priority 2002, dated 2009).
Read-outs that look alike come from different tables or passages of the source.

How the values were obtained:
[1] = biological target: T1, Human glucocorticoid receptors (hGR) (Homo sapiens, UniProt P04150); experiment: Radioligand filter binding assay, displacement of 3(H)-dexamethasone from human glucocorticoid receptor
T1 construct: made in house; host or cells: Sf9 insect cells, baculovirus (BAC-TO-BAC)
T1 sequence (P04150 1-777): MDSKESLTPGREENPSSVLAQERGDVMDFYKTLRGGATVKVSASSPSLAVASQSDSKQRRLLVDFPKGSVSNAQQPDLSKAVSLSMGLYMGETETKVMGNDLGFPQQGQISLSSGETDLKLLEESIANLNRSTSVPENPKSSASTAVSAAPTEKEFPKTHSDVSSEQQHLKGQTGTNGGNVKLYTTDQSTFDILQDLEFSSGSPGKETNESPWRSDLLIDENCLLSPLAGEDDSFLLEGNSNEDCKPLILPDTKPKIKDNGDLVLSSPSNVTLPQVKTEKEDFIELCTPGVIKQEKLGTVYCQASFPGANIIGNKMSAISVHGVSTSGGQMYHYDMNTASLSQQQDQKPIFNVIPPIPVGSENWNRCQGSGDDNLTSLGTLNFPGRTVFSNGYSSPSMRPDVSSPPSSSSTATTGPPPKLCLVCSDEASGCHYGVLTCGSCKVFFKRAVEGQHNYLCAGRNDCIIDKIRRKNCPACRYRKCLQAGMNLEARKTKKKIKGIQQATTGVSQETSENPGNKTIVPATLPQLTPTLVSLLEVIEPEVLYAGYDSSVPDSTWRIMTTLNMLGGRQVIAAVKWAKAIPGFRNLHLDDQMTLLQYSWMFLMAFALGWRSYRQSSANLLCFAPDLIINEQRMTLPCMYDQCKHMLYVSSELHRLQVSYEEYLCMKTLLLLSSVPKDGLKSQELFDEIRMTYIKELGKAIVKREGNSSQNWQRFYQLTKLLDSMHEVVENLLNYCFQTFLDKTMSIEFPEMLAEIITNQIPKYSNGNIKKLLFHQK
Description: Methods for Radioligand Binding Studies with Human Glucocorticoid and Progesterone Receptor Cytosol
Dexamethasone hereafter referred to as dex was purchased from SIGMA. […] Human glucocorticoid receptors were extracted from Sf9 cells infected with a recombinant baculovirus transfer vector containing the cloned hGR genes. Recombinant baculovirus was generated utilizing the BAC-TO-BAC expression system (Life Technologies) in accordance to instruction from the supplier. The hGR coding sequences were cloned into a baculovirus transfer vector by standard techniques. The recombinant baculoviruses expressing hGR were amplified and used to infect Sf9 cells. Infected cells were harvested 48 hrs post infection. […] The concentration of hGR in the extract was measured as specific ^3(H)-dex binding with the G25-assay as described in J. Steroid Biochem. Molec. […] The extract was aliquoted and stored at −70° C.
The filter binding assay: Dilution series of the test compounds and dexamethasone as reference were made from 10 mM (1 mM dex) stock solutions in DMSO. 10 μl of the dilutions was added in duplicates to the wells. The cell extracts were diluted 10 fold in EPMo+MTG buffer (1 mM EDTA, HPO4 20 mM (pH8), 6 mM MTG). […] 110μl of the diluted ^3(H)-dex were added to the wells. The final concentration of hGR in the experiment was estimated to 1 nM. All preparations were made in […] on ice and with +4° C. temperated buffers. The plates were incubated overnight at +4° C. (15-20 hrs.).
The incubation was stopped by filtration through GF/B filter on the Tomtec Cellharvester. The filtration on the Tomtec Cellharvester was programmed as follows: 1) Preparation before filtration with EP buffer (1 mM EDTA 20 mM HPO4 (pH8)) 2×(Wash/Asp 0.6 sec., Asp 0.5 sec.); 2) Prewet of GF/B filter with EP+PEI buffer (EP buffer, 0.3% Polyethylenimine) (Asp 0.8 sec.); 3) Filtration/harvesting of the 96-well incubation plate 3×(Wash/Asp 0.6 sec., Asp 0.5 sec.). The GF/B filter was dried for at least 1 hr at 65° C. A MeltiLex scintillation wax was melted onto the filter with the Microsealer. The filter was placed in a samplebag, which was thereafter trimmed with scissors to fit the filter cassette. The cassette were placed in the Microbeta and measured for 1 min/position, returning ccpm (corrected counts per minute).
The Microbeta-instrument generates the mean cpm (counts per minute) value/minute and corrects for individual variations between the detectors thus generating corrected cpm values.

[2] = biological target: T2, progesterone receptor (PR) (Homo sapiens, UniProt P06401); experiment: Radioligand binding assay for progesterone receptor (similar protocol); conditions: similar protocol to GR binding
T2 sequence (P06401 1-933): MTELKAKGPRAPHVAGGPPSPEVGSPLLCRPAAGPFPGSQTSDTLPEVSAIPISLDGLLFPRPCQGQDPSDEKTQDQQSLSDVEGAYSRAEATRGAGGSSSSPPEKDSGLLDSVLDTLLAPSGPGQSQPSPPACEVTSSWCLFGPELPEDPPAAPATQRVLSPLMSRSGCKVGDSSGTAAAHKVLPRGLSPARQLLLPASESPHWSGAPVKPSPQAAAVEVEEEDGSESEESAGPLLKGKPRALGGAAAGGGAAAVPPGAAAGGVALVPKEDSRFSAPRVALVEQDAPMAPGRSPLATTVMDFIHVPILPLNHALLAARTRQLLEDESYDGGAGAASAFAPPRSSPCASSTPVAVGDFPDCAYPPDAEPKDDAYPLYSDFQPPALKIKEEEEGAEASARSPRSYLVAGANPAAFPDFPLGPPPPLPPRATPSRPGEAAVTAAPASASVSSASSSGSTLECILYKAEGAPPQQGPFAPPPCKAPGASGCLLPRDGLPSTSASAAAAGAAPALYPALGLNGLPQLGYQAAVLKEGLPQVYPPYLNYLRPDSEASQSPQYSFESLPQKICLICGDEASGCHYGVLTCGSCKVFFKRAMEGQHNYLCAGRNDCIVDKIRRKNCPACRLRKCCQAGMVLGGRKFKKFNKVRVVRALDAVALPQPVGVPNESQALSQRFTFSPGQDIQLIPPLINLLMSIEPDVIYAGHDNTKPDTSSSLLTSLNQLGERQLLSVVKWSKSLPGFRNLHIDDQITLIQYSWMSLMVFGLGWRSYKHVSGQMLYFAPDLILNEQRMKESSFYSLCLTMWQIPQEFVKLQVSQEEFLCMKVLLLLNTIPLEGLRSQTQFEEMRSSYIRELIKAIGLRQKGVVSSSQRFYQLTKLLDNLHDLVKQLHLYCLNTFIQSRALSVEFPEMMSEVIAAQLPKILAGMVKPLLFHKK
Description: Methods for Radioligand Binding Studies with Human Glucocorticoid and Progesterone Receptor Cytosol A similar protocol was employed to measure affinity of the compounds of the present invention for progesterone receptor (PR).

[3] = tested on: HPA axis; experiment: Mouse hypothalamic-pituitary-adrenal (HPA) activation model; assay type: in vivo; conditions: for circulating level of ACTH / circulating level of corticosterone: oral dose, normal mice (FIG. 3)
Description: Hypothalamic stimulation triggered by a suppressed systemic glucocorticoid leads to the secretion of adrenocorticotrophic hormone (ACTH) by the pituitary gland. ACTH acts on the adrenal gland to stimulate the production of endogenous glucorticoids like cortisol (in man) or corticosterone (in rodents). […] Analogs like Compound 1 may thus have an improved efficacy and safety profile for the treatment of metabolic diseases like diabetes and obesity.
Mouse Hypothalamic-Pituitary-Adrenal (HPA) Activation Model
Non-fasted CD-1 male mice, weighing approximately 25 g, are dosed with vehicle, RU-486 (30-100 mg/kg), or GR antagonist (30-100 mg/kg) at 0800 hr when corticosterone levels are low. Two hours later, mice are euthanized with CO2, bled by cardiac puncture, and plasma analyzed for corticosterone by mass spectroscopy and for adrenocorticotropic hormone (ACTH) levels by ELISA. Brains and plasma are also removed for analysis of GR antagonist levels.

[4] = tested on: GR-mediated responses; experiment: Rat prednisolone challenge model (hepatic TAT, hepatic glycogen, blood lymphocytes); assay type: in vivo; conditions: for inhibition at 100 mg/kg: Rattus norvegicus, Lymphocyte, po, 100 mpk orally in rats, prednisolone challenge
Description: The analysis of both in vivo activity and liver selectivity may be accomplished using a single pharmacology study, involving a prednisolone challenge administered to rats.
Systemic glucocorticoid activity leads to an anti-inflammatory response, which is the result of a GR-linked suppression of lymphocytic activity.
Rat Prednisolone Challenge Model for Evaluation of Liver-Targeted Glucocorticoid Receptor Antagonists
Six hours following the prednisolone challenge, rats are euthanized with CO2, and bled via cardiac puncture for evaluation of blood lymphocytes and plasma drug levels. 7 mm liver biopsy punches are harvested for evaluation of tyrosine aminotransferase (TAT), hepatic glycogen and GR antagonist levels. Additional liver tissue, retroperitoneal fat, skeletal muscle, kidney and skin from an ear biopsy are also removed for isolation an evaluation of mRNA.

[5] = read-out: Inhibition of GR-mediated responses: Glycogen
[6] = read-out: Inhibition of GR-mediated responses: Lymphocytes
[7] = read-out: Inhibition of GR-mediated responses: TAT
[8] = 10 mpk prednisolone, normal rats, 7-hour experiment
[9] = 100 mpk, CD-1 male mice, two hours after dosing
[10] = 30 mpk orally, rat prednisolone challenge
[11] = rat prednisolone challenge, 100 mpk

Compound	IC50 [1]	IC50 [2]	circulating level of ACTH [3]	circulating level of corticosterone [3]	inhibition at 100 mg/kg [4, 5]	inhibition at 100 mg/kg [4, 6]	inhibition at 100 mg/kg [4, 7]	further results
CC#C[C@]1(O)CC[C@H]2[C@@H]3CCC4=CC(=O)CCC4=C3[C@@H](c3ccc(N(C)CCO[C@H]4CC[C@@]5(C)[C@@H](C4)C[C@@H](O)[C@@H]4[C@@H]5C[C@H](O)[C@]5(C)[C@@H]([C@H](C)CCC(=O)O)CC[C@@H]45)c(F)c3)C[C@@]21C [Example 3, (3β,5β,7α,12α)-7,12-dihydroxy-3-{2-[{4-[17β-hydroxy-3-oxo-17α-prop-1-ynylestra-4,9-dien-11β-yl]-2-fluorophenyl}(methyl)amino]ethoxy}cholan-24-oic acid]	2 nM	4.5 nM	–	–	–	–	–	–
CC#C[C@]1(O)[C@H](C)C[C@H]2[C@@H]3CCC4=CC(=O)CCC4=C3[C@@H](c3ccc(N(C)CCO[C@H]4CC[C@@]5(C)[C@@H](C4)C[C@@H](O)[C@@H]4[C@@H]5C[C@H](O)[C@]5(C)[C@@H]([C@H](C)CCC(=O)O)CC[C@@H]45)cc3)C[C@@]21C [Example 4, (3β,5β,7α,12α)-7,12-Dihydroxy-3-{2-[{4-[17β-hydroxy-16α-methyl-3-oxo17α-prop-1-ynylestra-4,9-dien-11β-yl]phenyl}(methyl)amino]ethoxy}cholan-24-oic acid]	–	1.6 nM	–	–	–	–	–	IC50 ([1]; 3(H)-dex displacement, hGR extract from Sf9 cells, read-out: GR Binding (IC50)): 3.3 nM
CC#C[C@]1(O)CC[C@H]2[C@@H]3CCC4=CC(=O)CCC4=C3[C@@H](c3ccc(N(C)CCO[C@H]4CC[C@@]5(C)[C@@H](C4)C[C@@H](O)[C@@H]4[C@@H]5C[C@H](O)[C@]5(C)[C@@H]([C@H](C)CCC(=O)O)CC[C@@H]45)cc3)C[C@@]21C [Example 1, (3β,5β,7α,12α)-7,12-Dihydroxy-3-{2-[{4-[17β-hydroxy-3-oxo-17α-prop-1-ynylestra-4,9-dien-11β-yl]phenyl}(methyl)amino]ethoxy}cholan-24-oic acid]	3.6 nM	8.7 nM	lack of change	lack of change	111%	35%	85%	stimulation of the HPA axis ([3]; mice, dose similar to RU-38486 (FIG. 3)): fails to stimulate; selectivity for hepatic GR vs. systemic effects ([4]; rat prednisolone challenge, doses as in Table I): liver-selective pharmacology
C[C@]12C=CC(=O)C=C1CC[C@@H]1[C@@H]2[C@@H](O)C[C@@]2(C)[C@H]1CC[C@]2(O)C(=O)CO [prednisolone]	–	–	–	–	–	–	–	circulating lymphocyte levels ([4]; 10 mpk prednisolone, normal rats): decrease; increase in the deposition of hepatic glycogen [4, 8]: ~60%; induction of tyrosine aminotransferase (TAT) [4, 8]: 3 fold
CC#C[C@]1(O)CC[C@H]2[C@@H]3CCC4=CC(=O)CCC4=C3[C@@H](c3ccc(OCCO[C@H]4CC[C@@]5(C)C(C4)C[C@@H](O)[C@H]4[C@@H]6CC[C@H]([C@H](C)CCC(=O)O)[C@@]6(C)[C@@H](O)C[C@@H]45)c(C)c3)C[C@@]21C (stereo partly drawn) [Example 2, (3β,7α,12α)-7,12-dihydroxy-3-(2-(4-(17β-hydroxy-3-oxo-17α-prop-1-ynylestra-4,9-dien-11β-yl)-2-methylphenoxy)ethoxy)cholan-24-oic acid]	2.8 nM	2.3 nM	–	–	–	–	–	–
CC#C[C@]1(O)CC[C@H]2[C@@H]3CCC4=CC(=O)CCC4=C3[C@@H](c3ccc(N(C)C)cc3)C[C@@]21C [RU-38486]	–	–	increases	increases	74%	108%	100%	ACTH level compared to vehicle controls [3, 9]: significantly increases; corticosterone level compared to vehicle controls [3, 9]: significantly increases; block of agonist effect on TAT induction [4, 10]: completely blocks; block of lymphopenic response produced by prednisolone [4, 10]: ability to block; suppression of prednisolone-induced deposition of hepatic glycogen [4, 10]: completely suppressed; block of hepatic glucocorticoid responses to prednisolone (TAT, glycogen) [4, 11]: completely antagonizes; effect on systemic (peripheral) glucocorticoid response to prednisolone [4, 11]: completely antagonizes
